# According to ChEMBL document CHEMBL2146450, “DNA Sequence Preference and Adduct Orientation of Pyrrolo[2,1-c][1,4]benzodiazepine Antitumor Agents” (ACS Med Chem Lett, 2010):
# Key:
# Type in all cases: nucleic-acid assay
# Nucleic Acid [1] = experiment: Binding affinity to 5'-TGT-TATA-TTT-TATA-ACA at 200 uM by HPLC/MS analysis
# Nucleic Acid [2] = experiment: Binding affinity to 5'-TGA-TATA-TTT-TATA-TCA at 200 uM by HPLC/MS analysis
# Nucleic Acid [3] = experiment: Binding affinity to 5'-AGA-TATA-TTT-TATA-TCT at 200 uM by HPLC/MS analysis
# Nucleic Acid [4] = experiment: Binding affinity to 5'-TATA-AGA-TTT-TCT-TATA at 200 uM by HPLC/MS analysis
# Nucleic Acid [5] = experiment: Binding affinity to 5'-AGT-TATA-TTT-TATA-ACT at 200 uM by HPLC/MS analysis
# Nucleic Acid [6] = experiment: Binding affinity to 5'-TATA-TGT-TTT-ACA-TATA at 200 uM by HPLC/MS analysis
# Nucleic Acid [7] = experiment: Binding affinity to 5'-TATA-AGT-TTT-ACT-TATA at 200 uM by HPLC/MS analysis
# Nucleic Acid [8] = experiment: Binding affinity to 5'-TATA-TGA-TTT-TCA-TATA at 200 uM by HPLC/MS analysis
compound,measurement,setting,value
COC(=O)c1cc(NC(=O)c2cc(NC(=O)CCCOc3cc4c(cc3OC)C(=O)N3CCC[C@H]3C=N4)cn2C)cn1C,K,Nucleic Acid [1],> 0.808 µM/min
same,K,Nucleic Acid [2],0.196 µM/min
same,K,Nucleic Acid [3],0.132 µM/min
same,K,Nucleic Acid [4],0.091 µM/min
same,K,Nucleic Acid [5],0.096 µM/min
same,K,Nucleic Acid [6],> 0.506 µM/min
same,K,Nucleic Acid [7],0.124 µM/min
same,K,Nucleic Acid [8],> 0.364 µM/min
